In patent US20230312577A1, “DUAL KINASE-BROMODOMAIN INHIBITORS” (MONASH UNIVERSITY, priority 2020, published 2023):

Legend:
OPM2 cells = experiment: Cell proliferation assay (ViaLight, cellular ATP); assay type: cell-based; settings: Homo sapiens, OPM-2, 120 h, 5 days, 5 μM to 1 nM
Method: OPM2 cells (1×10^3) were plated in a 96 well plate. Test compounds were added to cells at final concentrations ranging from 5 μM to 1 nM. They were incubated for 5 days before they were analysed using ViaLight luminescence-based proliferation assays which detect cellular ATP, as per the manufacturer's instructions. All samples were prepared in technical triplicates. Data analysis was performed in GraphPad Prism version 7.00 for Mac OS X, (GraphPad Software, San Diego California USA) in order to calculate the GI50.

PI3K = molecular target: T1, PI3K; experiment: PI3K enzyme activity assay (luminescence, ATP consumption, Kinase-Glo); assay type: biochemical; settings: 10 μM ATP, 180 μM phosphatidyl inositol, 60 min
T1 construct: PI3K Enzyme Activity Assay IC50 (nM); other: 10 μM ATP, 180 μM phosphatidyl inositol, 60 min
Method: PI3K activity was determined using a luminescence assay measuring ATP consumption as described previously (J.-A. Pinson, Z. Zheng, M. S. Miller, D. K. Chalmers, I. G. Jennings, P. E. Thompson, L-Aminoacyl-triazine derivatives are isoform-selective PI3Kβ inhibitors that target nonconserved Asp862 of PI3Kb, ACS Med. Chem. Lett. 4 (2013) 206-210). PI3K enzyme activity was determined in 25 μl of 20 mM HEPES pH 7.5, 5 mM MgCl2 with 180 μM phosphatidyl inositol and 10 μMATP. After a 60 min incubation at room temperature the reaction was stopped by the addition of Kinase-Glo (Promega) followed by a further 15 min incubation. Luminescence was then read using a Fluostar plate reader (BMGLabtech).
Inhibitors were diluted in 20% (v/v) DMSO at the indicated concentrations in order to generate a concentration versus inhibition of enzyme activity curve which was then analysed using GraphPad Prism version 8.00 for Windows, (GraphPad Software, San Diego California USA) in order to calculate the IC50. Standard deviations for the calculated IC50's are within 25% of the mean.

[1] = molecular target: GST-BRD4 (binding domain 1, amino acids 44-168) (Homo sapiens, UniProt O60885); experiment: Bromodomain binding assay (FRET); settings: for IC50: BRD4 binding domain 1, tetracetylated histone 4 peptide
Method: Inhibition of bromodomain binding was measured using a FRET (fluorescence resonance energy transfer) based assay. […] In the presence of the two detection reagents, streptavidin D2 and anti-GST-Eu (CisBio) binding trig-gers a FRET signal detected by fluorescence at 665 nm as measured using a Pherastar reader (BMG Labtech). Data was analysed using GraphPad Prism version 8.00 for Windows, (GraphPad Software, San Diego California USA) in order to calculate the IC50. Standard deviations for the calculated IC50's are within 25% of the mean.

IC50 (PI3K) [nM] | IC50 [1] [nM] | selectivity (BRD-4) [1] | Compound | GI50 (OPM2 cells) [nM]
> 500 | > 500 | – | CC(=O)N1c2ccc(-c3ccc(C(=O)N4CCN(C(=O)c5cn6cc(-c7cnc(N)nc7)nc(N7CCOCC7)c6n5)CC4)cc3)cc2CCC1C (centres unmarked) [Cpd 001, 1-(6-(4-(4-(6-(2-Aminopyrimidin-5-yl)-8-morpholinoimidazo[1,2-a]pyrazine-2-carbonyl)piperazine-1-carbonyl)phenyl)-2-methyl-3,4-dihydroquinolin-1(2H)-yl)ethan-1-one] | 100 to 500
≤ 100 | 100 to 500 | – | CC(=O)N1c2ccc(-c3ccc(CNC(=O)c4cn5cc(-c6cnc(N)nc6)nc(N6CCOCC6)c5n4)cc3)cc2CCC1C (centres unmarked) [Cpd 002, N-(4-(1-Acetyl-2-methyl-1,2,3,4-tetrahydroquinolin-6-yl)benzyl)-6-(2-aminopyrimidin-5-yl)-8-morpholinoimidazo[1,2-a]pyrazine-2-carboxamide] | ≤ 100
≤ 100 | > 500 | – | CC(=O)N1c2ccc(-c3ccc(CNC(=O)CNC(=O)c4cn5cc(-c6cnc(N)nc6)nc(N6CCOCC6)c5n4)cc3)cc2CCC1C (centres unmarked) [Cpd 003, N-(2-((4-(1-Acetyl-2-methyl-1,2,3,4-tetrahydroquinolin-6-yl)benzyl)amino)-2-oxoethyl)-6-(2-aminopyrimidin-5-yl)-8-morpholinoimidazo[1,2-a]pyrazine-2-carboxamide] | 100 to 500
100 to 500 | 100 to 500 | – | CC(=O)N1c2ccc(-c3ccc(CN4CCN(C(=O)c5cn6cc(-c7cnc(N)nc7)nc(N7CCOCC7)c6n5)CC4)s3)cc2CCC1C (centres unmarked) [Cpd 004, 1-(6-(5-((4-(6-(2-Aminopyrimidin-5-yl)-8-morpholinoimidazo[1,2-a]pyrazine-2-carbonyl)piperazin-1-yl)methyl)thiophen-2-yl)-2-methyl-3,4-dihydroquinolin-1(2H)-yl)ethan-1-one] | –
≤ 100 | 100 to 500 | – | CC(=O)N1c2ccc(-c3ccc(CNC(=O)c4cn5cc(-c6cnc(N)nc6)nc(N6CCOCC6)c5n4)s3)cc2CCC1C (centres unmarked) [Cpd 005, N-((5-(1-Acetyl-2-methyl-1,2,3,4-tetrahydroquinolin-6-yl)thiophen-2-yl)methyl)-6-(2-aminopyrimidin-5-yl)-8-morpholinoimidazo[1,2-a]pyrazine-2-carboxamide] | ≤ 100
≤ 100 | > 500 | – | CC(=O)N1c2ccc(-c3ccc(C(=O)CN4CCN(C(=O)c5cn6cc(-c7cnc(N)nc7)nc(N7CCOCC7)c6n5)CC4)cc3)cc2CCC1C (centres unmarked) [Cpd 007, 1-(4-(1-acetyl-2-methyl-1,2,3,4-tetrahydroquinolin-6-yl)phenyl)-2-(4-(6-(2-aminopyrimidin-5-yl)-8-morpholinoimidazo[1,2-a]pyrazine-2-carbonyl)piperazin-1-yl)ethan-1-one] | –
≤ 100 | > 500 | – | CC(=O)N1c2ccc(-c3ccc(C(=O)CNC(=O)c4cn5cc(-c6cnc(N)nc6)nc(N6CCOCC6)c5n4)cc3)cc2CCC1C (centres unmarked) [Cpd 008, N-(2-(4-(1-Acetyl-2-methyl-1,2,3,4-tetrahydroquinolin-6-yl)phenyl)-2-oxoethyl)-6-(2-aminopyrimidin-5-yl)-8-morpholinoimidazo[1,2-a]pyrazine-2-carboxamide] | –
≤ 100 | – | – | CC(=O)N1c2ccc(-c3ccc(CNC(=O)c4nc5c(N6CCOCC6)nc(-c6cnc(N)nc6)cn5c4C)cc3)cc2CC[C@@H]1C [Cpd 020, (S)-N-(4-(1-acetyl-2-methyl-1,2,3,4-tetrahydroquinolin-6-yl)benzyl)-6-(2-aminopyrimidin-5-yl)-3-methyl-8-morpholinoimidazo[1,2-a]pyrazine-2-carboxamide] | ≤ 100
≤ 100 | – | – | CC(=O)N1c2ccc(-c3ccc(C(=O)NCCNC(=O)c4nc5c(N6CCOCC6)nc(-c6cnc(N)nc6)cn5c4C)cc3)cc2CC[C@@H]1C [Cpd 021, (S)-N-(2-(4-(1-Acetyl-2-methyl-1,2,3,4-tetrahydroquinolin-6-yl)benzamido)ethyl)-6-(2-aminopyrimidin-5-yl)-3-methyl-8-morpholinoimidazo[1,2-a]pyrazine-2-carboxamide] | ≤ 100
100 to 500 | – | – | CC(=O)N1c2ccc(-c3ccc(C(=O)NCc4cc5nc(-c6cnc(N)nc6)nc(N6CCOCC6)c5s4)cc3)cc2CC[C@@H]1C [Cpd 026, (S)-4-(1-Acetyl-2-methyl-1,2,3,4-tetrahydroquinolin-6-yl)-N-((2-(2-aminopyrimidin-5-yl)-4-morpholinothieno[3,2-d]pyrimidin-6-yl)methyl)benzamide] | ≤ 100
≤ 100 | – | – | CC(=O)N1c2ccc(-c3ccc(CC(=O)NCc4cc5nc(-c6cnc(N)nc6)nc(N6CCOCC6)c5s4)cc3)cc2CC[C@@H]1C [Cpd 027, (S)-2-(4-(1-Acetyl-2-methyl-1,2,3,4-tetrahydroquinolin-6-yl)phenyl)-N-((2-(2-aminopy-rimidin-5-yl)-4-morpholinothieno[3,2-d]pyrimidin-6-yl)methyl)acetamide] | 100 to 500
100 to 500 | – | – | CC(=O)N1c2ccc(-c3ccc(C(=O)N4CCN(Cc5cc6nc(-c7cnc(N)nc7)nc(N7CCOCC7)c6s5)CC4)cc3)cc2CC[C@@H]1C [Cpd 028, (S)-1-(6-(4-(4-((2-(2-Aminopyrimidin-5-yl)-4-morpholinothieno[3,2-d]pyrimidin-6-yl)methyl)piperazine-1-carbonyl)phenyl)-2-methyl-3,4-dihydroquinolin-1(2H)-yl)ethan-1-one] | 100 to 500
100 to 500 | – | – | CC(=O)N1c2ccc(-c3ccc(CN4CCN(Cc5cc6nc(-c7cnc(N)nc7)nc(N7CCOCC7)c6s5)CC4)cc3)cc2CC[C@@H]1C [Cpd 029, (S)-1-(6-(4-((4-((2-(2-Aminopyrimidin-5-yl)-4-morpholinothieno[3,2-d]pyrimidin-6-yl)methyl)piperazin-1-yl)methyl)phenyl)-2-methyl-3,4-dihydroquinolin-1(2H)-yl)ethan-1-one] | 100 to 500
> 500 | – | – | CC(=O)N1c2ccc(-c3ccc(CNC(=O)c4cc5nc(-c6cnc(N)nc6)nc(N6CCOCC6)c5s4)cc3)cc2CC[C@@H]1C [Cpd 030, (S)-N-(4-(1-acetyl-2-methyl-1,2,3,4-tetrahydroquinolin-6-yl)benzyl)-2-(2-aminopyrimidin-5-yl)-4-morpholinothieno[3,2-d]pyrimidine-6-carboxamide] | ≤ 100
100 to 500 | – | – | CC(=O)N1c2ccc(-c3ccc(C(=O)NCCNC(=O)c4cc5nc(-c6cnc(N)nc6)nc(N6CCOCC6)c5s4)cc3)cc2CC[C@@H]1C [Cpd 031, (S)-N-(2-(4-(1-Acetyl-2-methyl-1,2,3,4-tetrahydroquinolin-6-yl)benzamido)ethyl)-2-(2-aminopyrimidin-5-yl)-4-morpholinothieno[3,2-d]pyrimidine-6-carboxamide] | ≤ 100
> 500 | – | – | CC(=O)N1c2ccc(-c3ccc(CNC(=O)c4sc5c(N6CCOCC6)nc(-c6cnc(N)nc6)nc5c4C)cc3)cc2CC[C@@H]1C [Cpd 032, (S)-N-(4-(1-acetyl-2-methyl-1,2,3,4-tetrahydroquinolin-6-yl)benzyl)-2-(2-aminopyrimidin-5-yl)-7-methyl-4-morpholinothieno[3,2-d]pyrimidine-6-carboxamide] | ≤ 100
≤ 100 | – | – | CC(=O)N1c2ccc(-c3ccc(C(=O)NCCNC(=O)c4sc5c(N6CCOCC6)nc(-c6cnc(N)nc6)nc5c4C)cc3)cc2CC[C@@H]1C [Cpd 033, (S)-N-(2-(4-(1-Acetyl-2-methyl-1,2,3,4-tetrahydroquinolin-6-yl)benzamido)ethyl)-2-(2-aminopyrimidin-5-yl)-7-methyl-4-morpholinothieno[3,2-d]pyrimidine-6-carboxamide] | ≤ 100
– | – | selective BRD-4 inhibitor | CC(=O)N1c2ccc(-c3ccc(CNC(=O)c4cn5cc(-c6cnc(N)nc6)nc(N6CCNCC6)c5n4)cc3)cc2CC[C@@H]1C.Cl [Cpd 035, (S)-N-(4-(1-acetyl-2-methyl-1,2,3,4-tetrahydroquinolin-6-yl)benzyl)-6-(2-aminopyrimidin-5-yl)-8-(piperazin-1-yl)imidazo[1,2-a]pyrazine-2-carboxamide hydrochloride] | ≤ 100
– | – | – | CC(=O)N1c2ccc(-c3ccc(CNC(=O)c4cc5nc(-c6cnc(N)nc6)cc(N6CCOCC6)n5n4)cc3)cc2CC[C@@H]1C [Cpd 075, (S)-N-(4-(1-Acetyl-2-methyl-1,2,3,4-tetrahydroquinolin-6-yl)benzyl)-5-(2-aminopyrimidin-5-yl)-7-morpholinopyrazolo[1,5-a]pyrimidine-2-carboxamide] | ≤ 100
